This note sets out measurements from patent publication US12252490B2, “Inhibiting deubiquitinase USP25 and USP28” (Valo Health, Inc., priority 2018, dated 2025).

In this assay the target is T1, USP28 (His-tagged USP28-FL-mammalian) (Homo sapiens, UniProt Q96RU2).
T1 construct: Expression of USP28 (1-1077)-TEV-6*His (pTT5 vector) was carried out in Expi293f cells; made in house; host or cells: Expi293f cells (pTT5 vector)
T1 sequence (Q96RU2 1-1077): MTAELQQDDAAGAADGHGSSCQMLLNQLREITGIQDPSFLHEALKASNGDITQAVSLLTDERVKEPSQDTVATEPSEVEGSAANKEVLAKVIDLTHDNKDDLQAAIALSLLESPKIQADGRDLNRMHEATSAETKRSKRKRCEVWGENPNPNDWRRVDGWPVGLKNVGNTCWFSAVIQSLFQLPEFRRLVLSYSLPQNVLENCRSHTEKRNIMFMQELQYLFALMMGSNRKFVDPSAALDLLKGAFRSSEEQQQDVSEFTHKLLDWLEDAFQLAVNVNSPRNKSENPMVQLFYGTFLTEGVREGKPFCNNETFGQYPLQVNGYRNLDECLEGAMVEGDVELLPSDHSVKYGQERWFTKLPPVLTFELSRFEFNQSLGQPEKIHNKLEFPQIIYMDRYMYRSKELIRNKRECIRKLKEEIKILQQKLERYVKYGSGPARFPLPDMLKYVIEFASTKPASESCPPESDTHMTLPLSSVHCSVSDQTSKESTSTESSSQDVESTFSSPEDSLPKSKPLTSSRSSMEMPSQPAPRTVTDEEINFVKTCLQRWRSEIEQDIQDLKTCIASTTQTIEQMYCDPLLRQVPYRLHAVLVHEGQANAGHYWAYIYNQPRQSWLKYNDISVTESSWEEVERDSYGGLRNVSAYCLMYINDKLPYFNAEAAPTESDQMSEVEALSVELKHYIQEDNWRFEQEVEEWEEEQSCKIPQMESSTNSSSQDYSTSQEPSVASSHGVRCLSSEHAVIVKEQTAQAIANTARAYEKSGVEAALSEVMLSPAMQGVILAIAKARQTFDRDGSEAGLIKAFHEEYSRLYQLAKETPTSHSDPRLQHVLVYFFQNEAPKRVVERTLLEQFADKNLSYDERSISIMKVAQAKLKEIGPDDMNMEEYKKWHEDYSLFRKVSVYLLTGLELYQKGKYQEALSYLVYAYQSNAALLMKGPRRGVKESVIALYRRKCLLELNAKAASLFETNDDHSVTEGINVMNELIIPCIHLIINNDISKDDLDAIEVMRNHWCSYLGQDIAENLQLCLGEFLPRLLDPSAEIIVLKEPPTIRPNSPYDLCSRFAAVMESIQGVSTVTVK
Kind of assay: Ubiquitin-Rhodamine 110 Assay for USP28 Activity, Example A-1(a). The class given is biochemical. The following applies: USP28, 75 pM enzyme, 25 nM Ub-Rh110, 1536-well, 30 min preincubation; read-out: Assay A-1(a) (IC50 range). On the procedure: The assay was performed in a final volume of 9 μL in assay buffer containing 20 mM Tris-HCl (pH 8.0, (1M Tris-HCl, pH 8.0 solution; Corning 46-031-CM)), 3 mM BME (2-Mercaptoethanol; Sigma 63689-25ML-F), 0.03% BGG (0.22 μM filtered, Sigma, G7516-25G), and 0.01% Triton X-100 (Sigma, T9284-10L). Nanoliter quantities of 10-point, 3-fold serial dilution in DMSO was pre-dispensed into 1536 assay plates (Corning, #3724BC) for a final test concentration of 25 μM to 1.3 nM, top to lowest dose, respectively. Enzyme USP28, construct His-tagged USP28-FL-mammalian, (protein expression and purification procedure described below). Concentration and incubation times were optimized for the maximal signal-to-background while maintaining initial velocity conditions at a fixed substrate concentration. The final concentration of the enzyme in the assay was 75 pM. Final substrate (Ub-Rh110; Ubiquitin-Rhodamine 110, UbiQ-126) concentration was 25 nM with [Ub-Rh110]<<Km. 3 μL of 2× enzyme was added to assay plates (pre-stamped with compound) preincubated with […] for 30 minutes and then 3 μL of 2×Ub-Rh110 was added to assay plates. Plates were incubated for 45 minutes at room temperature before addition of 3 μL of stop solution (final concentration of 10 mM citric acid (Sigma, 251275-500G)). Fluorescence was read on the Envision (Excitation at 485 nm and Emission at 535 nm; Perkin Elmer) or on the PheraSTAR (Excitation at 485 nm and Emission at 535 nm; BMG Labtech).
Expression of USP28 (1-1077)-TEV-6*His (pTT5 vector) was carried out in Expi293f cells (sequence derived from uniprot ID: Q96RU2-1). Cells were re-suspended in lysis buffer B 50 mM Bicine, pH 8.0, 20 mM NaCl, 5% glycerol, 0.1% CHAPS, 5 mM β-ME, 1 mM PMSF, 1 μg/ml Leupeptin, 1 μg/ml Pepstatin) and lysed by sonication. Insoluble material was removed by centrifugation and the supernatant was loaded onto a Ni-NTA column (GE Healthcare) equilibrated with Ni Buffer A (50 mM Bicine, pH 8.0, 20 mM NaCl, 5% glycerol, 0.1% CHAPS, 5 mM β-ME.) and washed with Ni Buffer A+20 mM imidazole until A280 reached baseline. The protein was eluted with Ni Buffer B (50 mM Bicine, pH 8.0, 20 mM NaCl, 5% glycerol, 0.1% CHAPS, 5 mM β-ME, 300 mM imidazole.). The protein was further purified using a Superdex™ 200 10/300 GL column (GE Healthcare) equilibrated with 50 mM Bicine, pH 8.0, 20 mM NaCl, 5% glycerol, 0.1% CHAPS, 5 mM β-ME. The protein was concentrated to 2.5 mg ml^−1, flash-frozen in liquid N2 and stored at −80° C.
For assay formats Examples A-1a, A-1b, and A-2, data were reported as percent inhibition compared with control wells based on the following equation: % inh=1−((FLU−AveLow)/(AveHigh−AveLow)) where FLU=measured Fluorescence, AveLow=average Fluorescence of no enzyme control (n=16), and AveHigh=average Fluorescence of DMSO control (n=16). IC50 values were determined by curve fitting of the standard 4 parameter logistic fitting algorithm included in the Activity Base software package: IDBS XE Designer Model205. Data is fitted using the Levenburg Marquardt algorithm.
One may read the IC50 as the point on the concentration scale where inhibition reaches its midpoint. On to `O=C(NCCc1ccc(N2CCNCC2)cc1)c1cnc2[nH]ccc2c1` [Example 1-2, N-(4-(piperazin-1-yl)phenethyl)-1H-pyrrolo[2,3-b]pyridine-5-carboxamide], for which the half-maximal inhibitory concentration (IC50) was in the range of 200 to 2000 nM.
Then `Nc1c(C(=O)NCCc2ccc(N3CCNCC3)cc2)cnc2[nH]ccc12` [Example 1-5, 4-amino-N-(4-(piperazin-1-yl)phenethyl)-1H-pyrrolo[2,3-b]pyridine-5-carboxamide], with 200 to 2000 nM; and `CCn1ccc2cc(C(=O)NCCc3ccc(N4CCNCC4)cc3)cnc21` [Example 1-4, 1-ethyl-N-(4-(piperazin-1-yl)phenethyl)-1H-pyrrolo[2,3-b]pyridine-5-carboxamide], with 1 to 50 nM; and `CCn1ccc2cc(C(=O)NCCc3cc(F)c(N4CC5CCC(C4)N5)cc3F)cnc21` [Example 1-1, N-[2-(4-[3,8-diazabicyclo[3.2.1]octan-3-yl]-2,5-difluorophenyl)ethyl]-1-ethyl-1H-pyrrolo[2,3-b]pyridine-5-carboxamide], with 1 to 50 nM.
Then `CCn1ccc2cc(C(=O)NC[C@H](C)c3cc(F)c(N4CCNCC4)cc3F)cnc21` (single isomer, unassigned) [Example 2-2], with 200 to 2000 nM.
Then `O=C(NCCc1ccc(N2CCNCC2)cc1)c1cnc2[nH]cc(Cl)c2c1` [Example 3-2, 3-chloro-N-(4-(piperazin-1-yl)phenethyl)-1H-pyrrolo[2,3-b]pyridine-5-carboxamide], with 200 to 2000 nM; and `CC(C)(O)Cn1ccc2cc(C(=O)NCCc3cc(F)c(N4CC5CCC(C4)N5)cc3F)cnc21` [Example 1-9, N-(4-(3,8-diazabicyclo[3.2.1]octan-3-yl)-2,5-difluorophenethyl)-1-(2-hydroxy-2-methylpropyl)-1H-pyrrolo[2,3-b]pyridine-5-carboxamide], with 2000 to 10000 nM; and `CCn1ccc2cc(C(=O)NC[C@@H](C)c3cc(F)c(N4CCNCC4)cc3F)cnc21` (single isomer, unassigned) [Example 2-1], with 50 to 200 nM.
For `CCn1cc(Cl)c2cc(C(=O)NCCc3ccc(N4CCNCC4)cc3)cnc21` [Example 3-1, 3-Chloro-1-ethyl-N-[2-[4-(piperazin-1-yl)phenyl]ethyl]-1H-pyrrolo[2,3-b]pyridine-5-carboxamide], the 50% inhibitory concentration (IC50) fell in the range of 1 to 50 nM.
Then `CCn1ccc2cc(C(=O)NCCc3ccc(N4CC5CCC(C4)N5)cc3)cnc21` [Example 1-6, N-(4-(3,8-diazabicyclo[3.2.1]octan-3-yl)phenethyl)-1-ethyl-1H-pyrrolo[2,3-b]pyridine-5-carboxamide], with 1 to 50 nM; and `CCn1ccc2cc(C(=O)NCCc3ccc(N4CC5CCC(C4)N5)c(F)c3)cnc21` [Example 1-10, N-(4-(3,8-diazabicyclo[3.2.1]octan-3-yl)-3-fluorophenethyl)-1-ethyl-1H-pyrrolo[2,3-b]pyridine-5-carboxamide], with 1 to 50 nM.
On to `CCn1ccc2cc(C(=O)NCCc3cc(F)c(N4CCNCC4)cc3F)cnc21` [Example 1-7, N-(2,5-difluoro-4-(piperazin-1-yl)phenethyl)-1-ethyl-1H-pyrrolo[2,3-b]pyridine-5-carboxamide], for which the IC50 lay within 1 to 50 nM.
Then `CCn1cc(Cl)c2cc(C(=O)NCCc3cc(F)c(N4CC5CCC(C4)N5)cc3F)nnc21` [Example 4-4, N-(4-(3,8-diazabicyclo[3.2.1]octan-3-yl)-2,5-difluorophenethyl)-5-chloro-7-ethyl-7H-pyrrolo[2,3-c]pyridazine-3-carboxamide], with 1 to 50 nM; and `CCn1ccc2cc(C(=O)NC[C@@H](C)c3cc(F)c(N4CC5CCC(C4)N5)cc3F)cnc21` (single isomer, unassigned) [Example 2-4], with 50 to 200 nM; and `CCn1ccc2cc(C(=O)NC[C@@H](C)c3cc(F)c(N4CC5CCC(C4)N5)cc3F)nnc21` (single isomer, unassigned) [Example 4-3], with 50 to 200 nM.
Then `O=C(NCCc1ccc(N2CCNCC2)cc1)c1cnc2c(ccn2CC(F)(F)F)c1` [Example 1-8], with 1 to 50 nM.
Take `CCn1ccc2cc(C(=O)NCCc3cc(F)c(N4CC5CCC(C4)N5)cc3F)nnc21` [Example 4-1, N-[2-(4-[3,8-diazabicyclo[3.2.1]octan-3-yl]-2,5-difluorophenyl)ethyl]-7-ethyl-7H-pyrrolo[2,3-c]pyridazine-3-carboxamide]: the IC50 lay within 1 to 50 nM.
`Cn1ccc2cc(C(=O)NCCc3ccc(N4CCNCC4)cc3)cnc21` [Example 1-3, 1-methyl-N-(4-(piperazin-1-yl)phenethyl)-1H-pyrrolo[2,3-b]pyridine-5-carboxamide]: the IC50 fell in the range of 200 to 2000 nM.
Then `CCn1ccc2cc(C(=O)NC[C@H](C)c3cc(F)c(N4CC5CCC(C4)N5)cc3F)nnc21` (single isomer, unassigned) [Example 4-2], with 50 to 200 nM; and `CCn1ccc2cc(C(=O)NC[C@H](C)c3cc(F)c(N4CC5CCC(C4)N5)cc3F)cnc21` (single isomer, unassigned) [Example 2-3], with 1 to 50 nM.
